Consider ten compounds from article PMC9979163, “Discovery and functional characterization of N-(thiazol-2-yl)-benzamide analogs as the first class of selective antagonists of the Zinc-Activated Channel (ZAC)” (Biochemical pharmacology, 2021).

By IC50 is commonly meant the point on the concentration scale where inhibition reaches its midpoint. The term EC50 denotes the concentration at which the effect is half-maximal. What is called Ki is the dissociation constant of the complex between target and ligand, obtained from inhibition or displacement.

SMILES strings stand for the structures.

One assay has as its system urease. Further details: method as in PMID 30086567. The note with it: Fig. 10; cited from earlier work.
The target in assay [1] is metabotropic glutamate receptor 1. Also on record: method as in PMID 19674894. The conditions noted are these: Fig. 10; cited from earlier work.
The target in the next assay is glucokinase. Further details: method as in PMID 19282189. The conditions noted are these: Fig. 10; cited from earlier work.
A further assay deals with Adenosine A2A receptor. Further details: method as in PMID 21210664. The conditions noted are these: Fig. 10; cited from earlier work.
Another assay concerns the target stearoyl-CoA desaturase. Further details: method as in PMID 19541482. The conditions noted are these: Fig. 10; cited from earlier work.
For assay [2], the target named is T1, ZAC (Homo sapiens, UniProt Q401N2).
T1 sequence (Q401N2 26-412): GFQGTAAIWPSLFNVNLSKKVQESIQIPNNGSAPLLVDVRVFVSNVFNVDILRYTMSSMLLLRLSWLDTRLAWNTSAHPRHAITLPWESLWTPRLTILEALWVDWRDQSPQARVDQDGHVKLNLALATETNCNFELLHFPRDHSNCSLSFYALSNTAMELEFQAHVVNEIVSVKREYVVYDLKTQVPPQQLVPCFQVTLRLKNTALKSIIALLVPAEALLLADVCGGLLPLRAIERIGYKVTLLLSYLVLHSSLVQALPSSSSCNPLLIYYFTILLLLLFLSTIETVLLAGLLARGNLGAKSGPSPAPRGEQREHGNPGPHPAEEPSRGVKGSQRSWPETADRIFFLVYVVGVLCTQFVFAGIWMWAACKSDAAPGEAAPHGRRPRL
The assay can be described thus: FMP assay at ZAC-HEK293 cells. The format is cell-based. The conditions noted are these: ZAC-HEK293 cells, FMP assay, n = 4. The procedure:
The screening of the 1,680 compounds in the compound library for antagonist activity at the ZAC-HEK293 cell line was performed in the FMP assay essentially as previously described. The day before the assay, cells were split into poly-D-lysine-coated black 96-well plates with clear bottoms (BD Biosciences, Palo Alto, CA) (6 × 10^4 cells/well). The following day, the culture medium was aspirated and the wells were washed once with 100 μl assay buffer (140 mM NaCl, 4.7 mM KCl, 2.5 mM CaCl2, 1.2 mM MgCl2, 11 mM HEPES, 10 mM D-glucose, pH 7.4), after which 100 μl assay buffer supplemented with FMP dye (0.5 mg/ml) and the various test compounds were added to the wells. The plate was then incubated at 37 °C for 30 min and assayed in a NOVOStar plate reader (BMG Labtechnologies, Offenburg, Germany) measuring emission at 560 nm caused by excitation at 530 nm before and up to 1 min after the addition of 33 μl of agonist solution. In the screening, the 1,680 compounds in the compound library were tested at assay concentrations in the 10–30 μM range, using Cu^2+ as agonist at an assay concentration of 200 μM.
Data from the FMP assay was analysed using KaleidaGraph 3.08 (Synergy Software, Reading, PA). Concentration-response curves for Cu^2+ and concentration-inhibition curves for compound 1 were constructed based on the difference in the relative fluorescence units (RFU) between the maximal fluorescence recorded before and after application of Cu^2+. The data were fitted to sigmoidal curves with variable slopes using nonlinear regression, and EC50 (Cu^2+) and IC50 (compound 1) values were derived from these equations.

The next assay concerns the target T2, h5-HT3A (Homo sapiens, UniProt P46098).
T2 construct: expressed in transfected cells
T2 sequence (P46098 24-478): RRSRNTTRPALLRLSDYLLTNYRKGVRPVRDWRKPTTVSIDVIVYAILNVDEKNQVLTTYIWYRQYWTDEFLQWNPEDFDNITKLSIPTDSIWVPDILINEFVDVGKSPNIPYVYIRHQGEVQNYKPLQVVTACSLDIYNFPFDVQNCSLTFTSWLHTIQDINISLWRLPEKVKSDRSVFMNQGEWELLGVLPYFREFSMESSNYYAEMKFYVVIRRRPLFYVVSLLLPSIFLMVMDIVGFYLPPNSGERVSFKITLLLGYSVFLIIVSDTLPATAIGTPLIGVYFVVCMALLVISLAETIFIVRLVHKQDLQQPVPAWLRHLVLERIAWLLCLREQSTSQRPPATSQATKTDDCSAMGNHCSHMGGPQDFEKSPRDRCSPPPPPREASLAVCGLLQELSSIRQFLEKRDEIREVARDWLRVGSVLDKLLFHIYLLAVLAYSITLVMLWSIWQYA
Put plainly: FMP assay at h5-HT3A-HEK293 cells. The conditions noted are these: concentrations up to 300 μM, data not shown. The format is cell-based.

A further assay has as its system HEK293 cells. Put plainly: FMP assay at HEK293 cells. The format is cell-based. The note with it: concentrations up to 300 μM, data not shown.
For another assay, the system named is Hec1/Nek2 interaction. Further details: method as in PMID 18922912. The conditions noted are these: Fig. 10; cited from earlier work.
The next assay has as its target Adenosine A1 receptor. Further details: method as in PMID 11262085. The conditions noted are these: Fig. 10; cited from earlier work.
In a further assay the target is necroptosis. Further details: method as in PMID 30400632. The note with it: Fig. 10; cited from earlier work.
In assay [3] the target is T1, ZAC. The note with it: Zn2+ (1 mM) as agonist, TEVC; cited from earlier work.

With `O=C(Nc1nc(Cc2nnc(SCc3ccc(F)cc3)o2)cs1)c1ccccc1` [Compound 7h], the 50% inhibitory concentration (IC50) in the assay on urease was 2200 nM.

Regarding `CC(C)Nc1cc(-c2csc(N(C)C(=O)c3ccc(F)cc3)n2)ncn1` [Compound 27], the IC50 in assay [1] is 5.1 nM.

Regarding `Cc1csc(NC(=O)c2cc(Oc3ccc(S(C)(=O)=O)cc3)cc(OC(C)C)c2)n1` [Compound 27e], at glucokinase, the concentration for a half-maximal effect (EC50) is 330 nM.

Take `CC(C)(C)CC(=O)Nc1c(F)cc(C(=O)Nc2nccs2)cc1F` [Compound 28]: the Ki at Adenosine A2A receptor is 5.9 nM.

With `CCNc1ccc(C(=O)Nc2ncc(Cc3cccc(C(F)(F)F)c3)s2)cc1OCCO` [Compound 37c], at stearoyl-CoA desaturase, the half-inhibitory concentration (IC50) is 0.04 nM.

For `[Cl][Cu][Cl]` [Cu^2+, CuCl2], the “pEC50 ± S.E.M. (agonist)” value on ZAC [2] is recorded as 4.59 ± 0.17. At ZAC [2] (read-out: EC50 (agonist)), the 50% effective concentration (EC50) turned out to be 26000 nM. Besides, the Agonist response result at h5-HT3A and in the assay on HEK293 cells was “did not evoke any responses” throughout.

As for `Cc1ccc(-c2csc(NC(=O)c3ccccc3)n2)c(C)c1` [INH1], the 50% inhibitory concentration (IC50) entry in the assay on Hec1/Nek2 interaction is reported as “in uM range”.

Turning to `COc1ccc(C(=O)Nc2nc(-c3ccccc3)cs2)cc1` [LUF5433], on Adenosine A1 receptor, the IC50 was 32 nM.

`CCn1c(SCc2ccc(C(=O)Nc3nccs3)cc2)nnc1-c1ccc(N)cc1` [NTB451]: the inhibition constant (Ki) at necroptosis is 7900 nM.

Take `COc1cc2c3cc1Oc1cc(ccc1O)C[C@@H]1c4c(cc(OC)c(O)c4Oc4ccc(cc4)C[C@@H]3N(C)CC2)CC[N+]1(C)C` [TC, tubocurarine]: the Fitted inhibition range on ZAC [3] is given as ~ 94%.
